{"source": "ChEMBL document CHEMBL1136681", "about": "“[3H]-(R)-NPTS, a radioligand for the type 1 glycine transporter” (Bioorg Med Chem Lett, 2003)", "assay": "Inhibition of [3-H]-glycine uptake into rat synaptosomes", "format": "subcellular, Brain", "data": [{"smiles": "Cc1ccc(C(=O)c2ccc(OC(CCN(C)CC(=O)O)c3ccccc3)cc2)cc1", "note": "(configuration not stated)", "values": [{"measurement": "IC50", "value": 153, "unit": "nM"}]}, {"smiles": "CN(CCC(Oc1ccc(-c2ccccc2)cc1)c1ccc(F)cc1)CC(=O)O", "note": "(configuration not stated)", "values": [{"measurement": "IC50", "value": 36.4, "unit": "nM"}]}]}
